Common to all, as to format: cell-based, human
Test [1] has as its system Z-138 and Maver-1 MCL cell lines. Nature of the test: Immunoblotting of cleaved Caspase-7 and PARP. Particulars: 20 nM IACS-010759 and/or 5 μM BPTES for 72 hours; FIG. 5G. As for the experimental part:
Cells were cultured with single agent or combination therapy in the presence or absence of caspase inhibitors. Cells were harvested, washed twice with cold PBS, and lysed with lysis buffer (Cell Signaling, Danvers, Mass., USA). Cell lysates were kept on ice for 30 min and centrifuged at 13,000 g for 10 min at 4° C. For the detection of cytosolic cytochrome c, the Cytosol Fractionation Kit (BioVision, Milpitas, Calif., USA) was utilized to acquire cytosolic fractions according to the manufacturer's instructions. Supernatants were collected, and the protein content of each fraction was determined using a Bio-Rad Bradford assay (Bio-Rad, Hercules, Calif., USA). Samples were boiled in loading buffer and separated by 10% SDS-PAGE. After electrophoresis, the proteins were transferred onto a nitrocellulose membrane (Bio-Rad), which was incubated with blocking solution (5% nonfat dry milk in PBS containing 0.05% Tween-20) for 2 h and immunoblotted with SLC16A1 (Novus, St. Louis, Mo., USA), SLC1A5, BTK, and p16INK4a, and GAPDH (Cell Signaling, Danvers, Mass., USA) antibodies. The membrane was finally visualized by incubating the membrane with a chemiluminescence Western blot kit (Pierce Biotechnology, Rockford, Ill., USA).
On the technique in general: A western blot detects proteins with antibodies after separation by electrophoresis.

The subject of test [2] is ibrutinib-resistant Maver-1 MCL cells. The experiment in a line: Apoptosis assay (Annexin-V/PI), Maver-1. Particulars: 72 hours, 20 nM IACS-010759 and/or 5 μM BPTES, FIGS. 5F & 11E. As for the experimental part:
(§1) Apoptosis assays. Annexin V-binding assay was used to detect the induction of apoptosis. Cells were seeded in 48-well plates with single agent or combination therapy for various times, or with different concentrations for 48 hours. To quantify the percentages of cells undergoing apoptosis, Annexin V-FITC was used. Briefly, cells were washed twice with cold PBS and then suspended in binding buffer at a concentration of 1×10^6 cells/mL. After incubation, 100 μL of the solution was transferred to a 5-mL tube, to which 5 μL of Annexin V-FITC and 5 μL of PI are added. The tube was gently vortexed and incubated for 15 min at room temperature in dark. At the end of the incubation, 300 μL of binding buffer was added. Flow cytometric analysis was performed immediately with a Novocyte Flow Cytometer (ACEA Biosciences, San Diego, Calif., USA). Data were analyzed with NovoExpress (ACEA Biosciences, San Diego, Calif., USA) or FlowJo10 (Tree Star, Ashland, Oreg., USA).

Test [3] relates to ibrutinib-resistant Z-138 MCL cells. Nature of the test: Apoptosis assay (Annexin-V/PI), Z-138. Particulars: 72 hours, 20 nM IACS-010759 and/or 5 μM BPTES, FIGS. 5F & 11E. As for the experimental part: as §1
Test [4] concerns ibrutinib-resistant MCL cell lines Maver-1 and Z-138. The experiment in a line: ROS levels by flow cytometry, ibrutinib-resistant MCL cell lines. Particulars: 0.5 mM AOA for 24 hours; compared with the sensitive cell lines; FIG. 10B. As for the experimental part: Mitochondria membrane potential, mitochondria mass, ROS, and apoptosis analysis. MCL cells were seeded and cultured overnight before treatment to reach log phase. Respective cell lines were plated at 2×10^6 cells/well in 6-well plates in phenol-red and pyruvate-free DMEM assay medium containing 5 mM glucose (Sigma), 2 mM GlutaMAX (Gibco, ThermoFisher Scientific), and 5% dialyzed FCS (Gibco). Vehicle, IACS-0107059 (20 nM), or (1-5 μM) BPTES was added and replenished every day until the indicated time points. ROS and mitochondria membrane potential were evaluated 24 hours after treatment. […] TMRE dye fluorescence retained in the cells was detected by flow cytometry with excitation and emission of 548/574 nm. Data were analyzed with NovoExpress (ACEA Biosciences, San Diego, Calif., USA) or FlowJo10 (Tree Star, Ashland, Oreg., USA). To measure ROS levels, treated cells were harvested, stained with […] CM-H2DCF-DA (C6827, Molecular Probes, Invitrogen) in PBS for 30 min at 37° C., washed twice with PBS, and analyzed in a flow cytometer (FACS Caliber, BD Biosciences) by recording the green fluorescence of oxidized DCF. The mean fluorescence of 10,000 analyzed cells (corrected for auto fluorescence) was taken as a readout for the intracellular ROS load.

In the case of `O=C(Cc1ccccc1)Nc1nnc(CCSCCc2nnc(NC(=O)Cc3ccccc3)s2)s1` [BPTES, bis-2-(5-phenylacetamido-1,3,4-thiadiazol-2-yl)ethyl sulfide], the “caspase 7 activation and PARP cleavage” value in test [1] was “induced caspase 7 activation and PARP cleavage”. For the same molecule, the apoptosis is given as 25% in test [2] and 44% in test [3].

For `NOCC(=O)O` [AOA, aminooxyacetate], the “ROS and energy stress” value in test [4] was “marked induction of reactive oxygen species (ROS) and energy stress”.
